Data: ChEMBL document CHEMBL1156829 (Proc Natl Acad Sci U S A, 2008)

Experiments:
[1] = NOVARTIS: Cytotoxicity against human hepatocellular carcinoma cell line (Huh7); format: toxicity, cell-based, Huh-7; conditions: Huh7 cells (hepatocellular carcinoma cell line)
Plasmodium falciparum [2] = assay: NOVARTIS: Inhibition of Plasmodium falciparum W2 (drug-resistant) proliferation in erythrocyte-based infection assay; format: functional, organism-based; conditions: read-out: EC50
Plasmodium falciparum [3] = assay: NOVARTIS: Inhibition of Plasmodium falciparum 3D7 (drug-susceptible) proliferation in erythrocyte-based infection assay; format: functional, organism-based

SMILES	CC50 [1] [nM]	EC50 (Plasmodium falciparum [2]; Plasmodium falciparum, W2) [nM]	EC50 (Plasmodium falciparum [3]; Plasmodium falciparum, 3D7) [nM]	EC50 (Plasmodium falciparum [2]) [nM]	EC50 (Plasmodium falciparum [3]) [nM]
COC(=O)[C@@H]1C[C@H](NC(=O)c2[nH]c3ccc(Cl)cc3c2-c2ccccc2)CN1Cc1cc(OC)cc(OC)c1	> 100000	786	> 11500		
Cc1ccc(N=C2NC(=O)/C(=C/c3cc(C)n(-c4cccc([N+](=O)[O-])c4)c3C)S2)cc1	> 100000	985	353		
CCN(CC)c1nc(Nc2cc(C)ccc2C)nc(Nc2ccccc2O)n1	> 10000	159	439		
COc1ccc(O)c(C=NNc2nc3ccccc3[nH]2)c1	43900	355	576		
Cc1ccc2nc3nc4c(C)cccc4c(N)c3cc2c1	6940	157	102		
COc1cc(C2CC(=O)NC3=C2C(=O)CC(c2ccccc2Cl)C3)ccc1O (stereo not given)	> 100000	109	815		
Cc1ccn(C(=O)NCCNC(=O)Nc2ccc(Cc3ccc(NC(=O)NCCNC(=O)n4ccc(C)n4)cc3)cc2)n1	> 10000	> 1250	> 953		
Cc1ccn2c(NC(C)(C)CC(C)(C)C)c(-c3ccccc3OC(=O)c3cccc(Cl)c3)nc2c1	> 10000	9.89	424		
Cc1c(Cc2ccccc2)sc(N=Cc2ccc(Br)s2)c1C(N)=O	> 10000	314	445		
CC(C)=CCCC1=CCC(CNCCCN(C)C)C(C)C1 (stereo not given)	18900	415	1750		
CN(C)S(=O)(=O)c1ccc(C(=O)Nc2nc3c(ccc4ccccc43)s2)cc1	> 100000	1970	> 9470		
COC(=O)c1sc2nc(CN(C)Cc3nccs3)ccc2c1NC(=O)c1ccc(C)s1	> 2840	1150	> 1330		
COc1cc(CNCCCN(C)C)ccc1OCc1ccc(F)cc1Cl	4160	159	92		
CCOC(=O)c1c(C)n(-c2ccccc2)c2ccc(O)cc12	> 100000	2660	1700		
O=C1C(=O)c2ncccc2-c2cccnc21 [PHANQUONE]	5910	369	644		
Cc1cc(NC(=O)/C=C/c2ccccc2Cl)ccc1Br	> 10000	1810	1350		
O=C(Nc1c(C(=O)Nc2cccc(Cl)c2)oc2ccccc12)c1cc(-c2ccccc2O)n[nH]1	35100	74.2	272		
Clc1cccc(CCNC2CCN(CCc3ccccc3)CC2)c1	12400	651	170		
COC(C)(C)CNCc1cc2cc3c(cc2n(Cc2cccc(C(F)(F)F)c2)c1=O)CCC3	> 10000	> 198	> 1250		
CCCCCCC(NC(=O)OCc1ccccc1)S(=O)(=O)c1ccc(C)cc1 (stereo not given)	> 100000	5800	> 12500		
O=C1C2CN(C(=O)Nc3ccccc3)C(c3ccc(Cl)cc3)C2C(=O)N1c1ccccc1 (stereo not given)	> 10000	> 958	> 1250		
Cc1ccc(-c2c[n+](Cc3ccc(Cl)cc3)c3n2CCC3)cc1	> 75700	153	373		

SMILES	CC50 [1] [nM]	EC50 (Plasmodium falciparum [2]; Plasmodium falciparum, W2) [nM]	EC50 (Plasmodium falciparum [3]; Plasmodium falciparum, 3D7) [nM]	EC50 (Plasmodium falciparum [2]) [nM]	EC50 (Plasmodium falciparum [3]) [nM]
CC(Nc1ccccc1)C(=O)Nc1cc(C(F)(F)F)ccc1Cl (stereo not given)	71400	1290	1220		
COc1ccc(C=NNc2nc3cc(Cl)ccc3[nH]2)cc1OC	> 89800	111	239		
CC1(C)CC(=O)C(=CNc2nc3c(s2)CCc2c-3cnn2-c2ccccc2)C(=O)C1	> 10000	> 1250	> 942		
COc1ccccc1-n1c(/C=C/c2cc(Br)ccc2O)nc2ccccc2c1=O	> 10000	> 1050	> 1250		
O=C(/C=C/c1ccccc1)NNC(=O)c1cccnc1	> 9450	> 750	> 1250		
COc1ccc(C2Nc3ccc4ccccc4c3C3=C2C(=O)CC(C)(C)C3)cc1Br (stereo not given)	> 100000	649	3190		
C/C=C(\Cl)C1=CC(=O)[C@]23C[C@H]2[C@@]2(C)CO[C@@]1(O)[C@@]3(O)O2	> 10000	> 1250	205		
CC1CNC2C(C)C3C(CC4C5CCC6CC(N)CCC6(C)C5CCC43C)OC2(O)C1 (stereo not given)	> 10000	< 12.7	863		
COc1cc(O)c2c(=O)cc(CCOC(=O)Nc3ccccc3)[nH]c2c1	> 10000	> 1250	> 905		
O=C(NCc1ccc(Cl)cc1)C1CNCC1c1ccc(C(F)(F)F)cc1 (stereo not given)	18200	412	392		
CCOC(=O)c1c(NC(=O)Cc2ccc([N+](=O)[O-])cc2)sc2c1CCCC2	> 10000	> 1250	> 1060		
c1ccc(-c2nn(-c3ccccc3)[n+](-c3cccc4ccccc34)n2)cc1	> 10000	131	> 417		
CCCCNC(=O)C(c1cccc(OC)c1)N1C(=O)c2cc(Oc3ccccc3)ccc2NC(=O)C1CO (stereo not given)	> 14000	< 8	181		
COC1=CC(=O)c2c(ccc3cc(O)ccc23)C1=O	> 10000	215	767		
O=C(Nc1ccc(C23CC4CC(CC(c5ccccc5)(C4)C2)C3)cc1)c1cccs1	> 100000	468	645		
Nc1ccc2nc(-c3cccc(-c4nc5ccc(N)cc5s4)c3)sc2c1	> 100000	995	283		
CC1=C(C(=O)OCCOc2ccccc2)C(c2cccc([N+](=O)[O-])c2)C2=C(CCCC2=O)N1 (stereo not given)	> 10000	1810	> 1250		
CCOC(=O)C1CCN(C(=O)CN2C(=O)c3ccccc3C2c2c[nH]c3ccccc23)CC1 (stereo not given)	> 100000	513	519		
CCOC(=O)C1=C(C(=O)OCC)SC(=C2C(=S)C(C)(C)N(C(=O)c3cccc(F)c3)c3cc(C)ccc32)S1	> 100000	> 1400	> 7520		
CCCCCc1c(C)c(C#N)c2nc3ccccc3n2c1NCCN(CC)CC	> 10000	1320	> 1250		
CCOc1ccc(C(=O)C[N+]2=C(C)c3ccc(C)n3CC2)cc1	> 100000	767	1630		
CC(=O)N1c2ccc([N+](=O)[O-])cc2C(C)(c2ccccc2)CC1(C)C (stereo not given)	> 100000	61.2	1100		

SMILES	CC50 [1] [nM]	EC50 (Plasmodium falciparum [2]; Plasmodium falciparum, W2) [nM]	EC50 (Plasmodium falciparum [3]; Plasmodium falciparum, 3D7) [nM]	EC50 (Plasmodium falciparum [2]) [nM]	EC50 (Plasmodium falciparum [3]) [nM]
CCN1C(=Cc2sc3ccccc3[n+]2C)C=Cc2ccc(C)cc21	> 11800			> 1420	1650
COc1ccc(S(=O)(=O)N2CCCCC2C(=O)NC(CN2CCCC2)c2ccccc2)cc1 (stereo not given)	> 10000	122	168		
COc1cc2c(cc1OC)C1Cc3ccc(OC)c(OC)c3CN1CC2 (stereo not given)	> 100000	871	2600		
CCCCCN(C(=O)COCc1ccccc1)C(CC)c1nc2ccccc2c(=O)n1-c1cccc(Cl)c1 (stereo not given)	> 10000	847	411		
CCOc1ccc(NC(=O)C2c3ccccc3C(=O)N(CC(C)C)C2c2cccs2)cc1 (stereo not given)	> 100000	36.7	78.3		
C[n+]1c(/C=C/c2ccc(Cl)c(Cl)c2)ccc2ccccc21	> 10000	390	295		
CO[C@H]1[C@@H](C)[C@@H]([C@H](C)C2O[C@@]3(CC[C@@](C)([C@H]4CC[C@@](C)([C@@H]5O[C@@H]([C@H]6O[C@](C)(O)[C@H](C)C[C@@H]6C)C[C@@H]5C)O4)O3)C[C@H](O)[C@@H]2C)O[C@@](O)([C@H](C)C(=O)O)[C@H]1C (stereo not given in full)	> 10000	938	1140		
CCN(CC)S(=O)(=O)c1cc(S(=O)(=O)c2ccc(Cl)c(S(=O)(=O)N(CC)CC)c2)ccc1Cl	> 10000	> 278	> 927		
COc1ccc(CN(C)C(C)C)cc1OC1CCN(C(=O)C2CCC2)CC1	> 100000	> 10000	> 11200		
O=c1c2ccccc2[nH]c2cc(Cl)ccc12	> 10000	178	95.5		
CCOC(=O)C1=C(C)NC2=C(C(=O)CC(c3ccc(OC)c(OC)c3)C2)C1c1ccc([N+](=O)[O-])cc1 (stereo not given)	> 100000	64	180		
COc1cccc2c1C(=O)C1C(O)=C3C(=C(O)C1C2=O)CC(O)(C(C)=NN=C1CC(C)(C)N(O)C(C)(C)C1)CC3OC1CC(C)(N)C(O)CO1 (stereo not given)	> 10000	337	416		
O=C(C(Cc1c[nH]c2ccccc12)NS(=O)(=O)c1ccc(Cl)cc1)N1CCCCC1 (stereo not given)	> 100000	488	719		
COC(=O)c1ccc(Cn2cc(C=O)c3ccccc32)o1	> 10000	> 707	> 1250		
N#CC(=Cn1cc(Cc2ccc(Cl)cc2Cl)c2ccccc21)c1nn(CCO)c(N)c1C#N	75000	909	629		
COc1ccc(/C=C/C(=O)Nc2ccc3nc(N4CCN(C)CC4)cc(C)c3c2)cc1OC	> 10000	> 1250	872		
Cc1c(C)c(C)c(CNC(=S)NN)c(C)c1C	> 100000	> 11400	4090		
COc1ccccc1N1CCN([C@@H]2CCN(Cc3cccnc3)C[C@@H]2CCC(=O)N2CCCC2)CC1	> 10000	810	1080		
CCc1cccc(NC(=S)N2CCCC2c2ccccc2C(F)(F)F)c1 (stereo not given)	> 10000	170	408		
COc1ccc(C2N=C(N)N=C(N)N2c2ccc(C)cc2)cc1 (stereo not given)	> 10000	> 1640	73.8		
COc1ccc(-n2nc(C(=O)NCC(=O)NCCCN3CC(C)CC(C)C3)c3ccccc3c2=O)cc1Cl (stereo not given)	76400	1870	> 7360		
